# Measurements from the supplement of paper PMC10307832.
# Legend:
# Assay in all cases: relative viability (nuclei count vs DMSO), 5 days (fraction); higher = more cells survive
# 201T = tested on: 201T
# Outline: (§1)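 Dosing by pin tool came one day after lung cancer cell lines were seeded in 1536-well plates, using either one drug or a fixed anchor-drug dose plus five library-drug doses (not always all listed) in √10 steps. After 5 days, nuclei were counted on 4× images. Relative viability is treated-well nuclei count divided by vehicle-well nuclei count, and values are medians of duplicate plates.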
# ABC-1 = tested on: ABC-1
# Outline: as §1
# BEN = tested on: BEN
# Outline: as §1
# CAL-12T = tested on: CAL-12T
# Outline: as §1
# EKVX = tested on: EKVX
# Outline: as §1
# HARA = tested on: HARA
# Outline: as §1
# HCC-366 = tested on: HCC-366
# Outline: as §1
# LK-2 = tested on: LK-2
# Outline: as §1
# LOU-NH91 = tested on: LOU-NH91
# Outline: as §1
# NCI-H1437 = tested on: NCI-H1437
# Outline: as §1
# NCI-H1666 = tested on: NCI-H1666
# Outline: as §1
# NCI-H2170 = tested on: NCI-H2170
# Outline: as §1
# NCI-H3122 = tested on: NCI-H3122
# Outline: as §1
# NCI-H441 = tested on: NCI-H441
# Outline: as §1
# NCI-H460 = tested on: NCI-H460
# Outline: as §1
# NCI-H727 = tested on: NCI-H727
# Outline: as §1
# PC-14 = tested on: PC-14
# Outline: as §1
# SW 900 = tested on: SW 900
# Outline: as §1
compound,measurement,setting,value
Nc1ccn([C@@H]2O[C@H](CO)[C@@H](O)[C@@H]2O)c(=O)n1 [Cytarabine] + NC(=O)Nc1cc(-c2cccc(F)c2)sc1C(=O)N[C@H]1CCCNC1 [AZD7762] (partner 0.2 µM),relative viability,201T; first compound 0.005 µM,0.635
same,relative viability,201T; first compound 0.01581 µM,0.596
same,relative viability,201T; first compound 0.05 µM,0.653
same,relative viability,201T; first compound 0.1581 µM,0.342
same,relative viability,201T; first compound 0.5 µM,0.265
same,relative viability,ABC-1; first compound 0.005 µM,0.626
same,relative viability,ABC-1; first compound 0.01581 µM,0.899
same,relative viability,ABC-1; first compound 0.05 µM,0.745
same,relative viability,ABC-1; first compound 0.1581 µM,0.744
same,relative viability,ABC-1; first compound 0.5 µM,0.666
same,relative viability,BEN; first compound 0.005 µM,0.588
same,relative viability,BEN; first compound 0.01581 µM,0.425
same,relative viability,BEN; first compound 0.05 µM,0.296
same,relative viability,BEN; first compound 0.1581 µM,0.259
same,relative viability,BEN; first compound 0.5 µM,0.241
same,relative viability,CAL-12T; first compound 0.005 µM,0.611
same,relative viability,CAL-12T; first compound 0.01581 µM,0.405
same,relative viability,CAL-12T; first compound 0.05 µM,0.248
same,relative viability,CAL-12T; first compound 0.1581 µM,0.208
same,relative viability,CAL-12T; first compound 0.5 µM,0.221
same,relative viability,EKVX; first compound 0.005 µM,0.697
same,relative viability,EKVX; first compound 0.01581 µM,0.676
same,relative viability,EKVX; first compound 0.05 µM,0.329
same,relative viability,EKVX; first compound 0.5 µM,0.67
same,relative viability,HARA; first compound 0.005 µM,0.298
same,relative viability,HARA; first compound 0.01581 µM,0.211
same,relative viability,HARA; first compound 0.05 µM,0.176
same,relative viability,HARA; first compound 0.1581 µM,0.157
same,relative viability,HARA; first compound 0.5 µM,0.171
same,relative viability,HCC-366; first compound 0.005 µM,0.139
same,relative viability,HCC-366; first compound 0.01581 µM,0.0915
same,relative viability,HCC-366; first compound 0.05 µM,0.107
same,relative viability,HCC-366; first compound 0.1581 µM,0.0525
same,relative viability,HCC-366; first compound 0.5 µM,0.038
same,relative viability,LK-2; first compound 0.005 µM,0.3
same,relative viability,LK-2; first compound 0.01581 µM,0.13
same,relative viability,LK-2; first compound 0.05 µM,0.0997
same,relative viability,LK-2; first compound 0.1581 µM,0.0979
same,relative viability,LK-2; first compound 0.5 µM,0.12
same,relative viability,LOU-NH91; first compound 0.005 µM,0.645
same,relative viability,LOU-NH91; first compound 0.01581 µM,0.803
same,relative viability,LOU-NH91; first compound 0.05 µM,0.708
same,relative viability,LOU-NH91; first compound 0.1581 µM,0.548
same,relative viability,LOU-NH91; first compound 0.5 µM,0.252
same,relative viability,NCI-H1437; first compound 0.005 µM,1.04
same,relative viability,NCI-H1437; first compound 0.01581 µM,0.549
same,relative viability,NCI-H1437; first compound 0.05 µM,0.321
same,relative viability,NCI-H1437; first compound 0.1581 µM,0.167
same,relative viability,NCI-H1437; first compound 0.5 µM,0.146
same,relative viability,NCI-H1666; first compound 0.005 µM,0.943
same,relative viability,NCI-H1666; first compound 0.01581 µM,0.768
same,relative viability,NCI-H1666; first compound 0.05 µM,0.666
same,relative viability,NCI-H1666; first compound 0.1581 µM,0.444
same,relative viability,NCI-H1666; first compound 0.5 µM,0.413
same,relative viability,NCI-H2170; first compound 0.005 µM,0.666
same,relative viability,NCI-H2170; first compound 0.01581 µM,0.515
same,relative viability,NCI-H2170; first compound 0.05 µM,0.347
same,relative viability,NCI-H2170; first compound 0.1581 µM,0.173
same,relative viability,NCI-H2170; first compound 0.5 µM,0.136
same,relative viability,NCI-H3122; first compound 0.005 µM,0.943
same,relative viability,NCI-H3122; first compound 0.01581 µM,0.585
same,relative viability,NCI-H3122; first compound 0.05 µM,0.397
same,relative viability,NCI-H3122; first compound 0.1581 µM,0.184
same,relative viability,NCI-H3122; first compound 0.5 µM,0.138
same,relative viability,NCI-H441; first compound 0.005 µM,0.982
same,relative viability,NCI-H441; first compound 0.01581 µM,0.912
same,relative viability,NCI-H441; first compound 0.05 µM,0.814
same,relative viability,NCI-H441; first compound 0.1581 µM,0.306
same,relative viability,NCI-H441; first compound 0.5 µM,0.211
same,relative viability,NCI-H460; first compound 0.005 µM,0.209
same,relative viability,NCI-H460; first compound 0.01581 µM,0.0904
same,relative viability,NCI-H460; first compound 0.05 µM,0.0497
same,relative viability,NCI-H460; first compound 0.1581 µM,0.0319
same,relative viability,NCI-H460; first compound 0.5 µM,0.0286
same,relative viability,NCI-H727; first compound 0.005 µM,0.518
same,relative viability,NCI-H727; first compound 0.01581 µM,0.565
same,relative viability,NCI-H727; first compound 0.05 µM,0.377
same,relative viability,NCI-H727; first compound 0.1581 µM,0.361
same,relative viability,NCI-H727; first compound 0.5 µM,0.418
same,relative viability,PC-14; first compound 0.005 µM,0.346
same,relative viability,PC-14; first compound 0.01581 µM,0.234
same,relative viability,PC-14; first compound 0.05 µM,0.136
same,relative viability,PC-14; first compound 0.1581 µM,0.0783
same,relative viability,PC-14; first compound 0.5 µM,0.0484
same,relative viability,SW 900; first compound 0.005 µM,0.741
same,relative viability,SW 900; first compound 0.01581 µM,0.546
same,relative viability,SW 900; first compound 0.05 µM,0.451
same,relative viability,SW 900; first compound 0.1581 µM,0.191
same,relative viability,SW 900; first compound 0.5 µM,0.16
Cc1sc2c(c1C)C(c1ccc(Cl)cc1)=N[C@@H](CC(=O)OC(C)(C)C)c1nnc(C)n1-2 [JQ1] + NC(=O)Nc1cc(-c2cccc(F)c2)sc1C(=O)N[C@H]1CCCNC1 [AZD7762] (partner 0.2 µM),relative viability,201T; first compound 0.04 µM,0.716
same,relative viability,201T; first compound 0.4 µM,0.7
same,relative viability,201T; first compound 1.265 µM,0.498
same,relative viability,201T; first compound 4 µM,0.393
same,relative viability,ABC-1; first compound 0.04 µM,0.854
same,relative viability,ABC-1; first compound 0.1265 µM,0.803
same,relative viability,ABC-1; first compound 0.4 µM,0.95
same,relative viability,ABC-1; first compound 1.265 µM,0.596
same,relative viability,ABC-1; first compound 4 µM,0.529
same,relative viability,BEN; first compound 0.04 µM,0.718
same,relative viability,BEN; first compound 0.1265 µM,0.585
same,relative viability,BEN; first compound 0.4 µM,0.644
same,relative viability,BEN; first compound 1.265 µM,0.468
same,relative viability,BEN; first compound 4 µM,0.372
same,relative viability,CAL-12T; first compound 0.04 µM,0.588
same,relative viability,CAL-12T; first compound 0.1265 µM,0.52
same,relative viability,CAL-12T; first compound 0.4 µM,0.466
same,relative viability,CAL-12T; first compound 1.265 µM,0.365
same,relative viability,CAL-12T; first compound 4 µM,0.317
same,relative viability,EKVX; first compound 0.04 µM,0.721
same,relative viability,EKVX; first compound 0.1265 µM,0.794
same,relative viability,EKVX; first compound 0.4 µM,1.03
same,relative viability,EKVX; first compound 1.265 µM,0.793
same,relative viability,EKVX; first compound 4 µM,0.455
same,relative viability,HARA; first compound 0.04 µM,0.303
same,relative viability,HARA; first compound 0.1265 µM,0.431
same,relative viability,HARA; first compound 0.4 µM,0.236
same,relative viability,HARA; first compound 1.265 µM,0.155
same,relative viability,HARA; first compound 4 µM,0.242
same,relative viability,HCC-366; first compound 0.04 µM,0.305
same,relative viability,HCC-366; first compound 0.4 µM,0.23
same,relative viability,HCC-366; first compound 1.265 µM,0.146
same,relative viability,HCC-366; first compound 4 µM,0.0976
same,relative viability,LK-2; first compound 0.04 µM,0.464
same,relative viability,LK-2; first compound 0.1265 µM,0.388
same,relative viability,LK-2; first compound 0.4 µM,0.229
same,relative viability,LK-2; first compound 1.265 µM,0.101
same,relative viability,LK-2; first compound 4 µM,0.128
same,relative viability,LOU-NH91; first compound 0.04 µM,0.759
same,relative viability,LOU-NH91; first compound 0.1265 µM,0.609
same,relative viability,LOU-NH91; first compound 0.4 µM,0.664
same,relative viability,LOU-NH91; first compound 1.265 µM,0.379
same,relative viability,LOU-NH91; first compound 4 µM,0.407
same,relative viability,NCI-H1437; first compound 0.04 µM,1.11
same,relative viability,NCI-H1437; first compound 0.1265 µM,0.979
same,relative viability,NCI-H1437; first compound 0.4 µM,0.847
same,relative viability,NCI-H1437; first compound 1.265 µM,0.657
same,relative viability,NCI-H1437; first compound 4 µM,0.445
same,relative viability,NCI-H1666; first compound 0.04 µM,0.869
same,relative viability,NCI-H1666; first compound 0.1265 µM,0.793
same,relative viability,NCI-H1666; first compound 0.4 µM,0.65
same,relative viability,NCI-H1666; first compound 1.265 µM,0.48
same,relative viability,NCI-H1666; first compound 4 µM,0.488
same,relative viability,NCI-H2170; first compound 0.04 µM,0.785
same,relative viability,NCI-H2170; first compound 0.1265 µM,0.564
same,relative viability,NCI-H2170; first compound 0.4 µM,0.739
same,relative viability,NCI-H2170; first compound 1.265 µM,0.431
same,relative viability,NCI-H2170; first compound 4 µM,0.379
same,relative viability,NCI-H3122; first compound 0.04 µM,1.04
same,relative viability,NCI-H3122; first compound 0.1265 µM,0.965
same,relative viability,NCI-H3122; first compound 0.4 µM,0.971
same,relative viability,NCI-H3122; first compound 1.265 µM,0.883
same,relative viability,NCI-H3122; first compound 4 µM,0.693
same,relative viability,NCI-H441; first compound 0.04 µM,1.07
same,relative viability,NCI-H441; first compound 0.1265 µM,1.16
same,relative viability,NCI-H441; first compound 0.4 µM,1.04
same,relative viability,NCI-H441; first compound 1.265 µM,0.369
same,relative viability,NCI-H441; first compound 4 µM,0.249
same,relative viability,NCI-H460; first compound 0.04 µM,0.594
same,relative viability,NCI-H460; first compound 0.1265 µM,0.327
same,relative viability,NCI-H460; first compound 0.4 µM,0.644
same,relative viability,NCI-H460; first compound 1.265 µM,0.443
same,relative viability,NCI-H460; first compound 4 µM,0.106
same,relative viability,NCI-H727; first compound 0.04 µM,0.735
same,relative viability,NCI-H727; first compound 0.1265 µM,0.61
same,relative viability,NCI-H727; first compound 0.4 µM,0.539
same,relative viability,NCI-H727; first compound 1.265 µM,0.436
same,relative viability,NCI-H727; first compound 4 µM,0.405
same,relative viability,PC-14; first compound 0.04 µM,0.267
same,relative viability,PC-14; first compound 0.1265 µM,0.259
same,relative viability,PC-14; first compound 0.4 µM,0.207
same,relative viability,PC-14; first compound 1.265 µM,0.125
same,relative viability,PC-14; first compound 4 µM,0.0805
same,relative viability,SW 900; first compound 0.04 µM,0.562
same,relative viability,SW 900; first compound 0.1265 µM,0.556
same,relative viability,SW 900; first compound 0.4 µM,0.309
same,relative viability,SW 900; first compound 1.265 µM,0.2
same,relative viability,SW 900; first compound 4 µM,0.147
